# Target: T1, hTRPC5 (Homo sapiens, UniProt Q9UL62)
# T1 construct: expressed in transfected cells; host or cells: HEK293 TREx cells with inducible TRPC5 expression
# T1 sequence (Q9UL62 1-973): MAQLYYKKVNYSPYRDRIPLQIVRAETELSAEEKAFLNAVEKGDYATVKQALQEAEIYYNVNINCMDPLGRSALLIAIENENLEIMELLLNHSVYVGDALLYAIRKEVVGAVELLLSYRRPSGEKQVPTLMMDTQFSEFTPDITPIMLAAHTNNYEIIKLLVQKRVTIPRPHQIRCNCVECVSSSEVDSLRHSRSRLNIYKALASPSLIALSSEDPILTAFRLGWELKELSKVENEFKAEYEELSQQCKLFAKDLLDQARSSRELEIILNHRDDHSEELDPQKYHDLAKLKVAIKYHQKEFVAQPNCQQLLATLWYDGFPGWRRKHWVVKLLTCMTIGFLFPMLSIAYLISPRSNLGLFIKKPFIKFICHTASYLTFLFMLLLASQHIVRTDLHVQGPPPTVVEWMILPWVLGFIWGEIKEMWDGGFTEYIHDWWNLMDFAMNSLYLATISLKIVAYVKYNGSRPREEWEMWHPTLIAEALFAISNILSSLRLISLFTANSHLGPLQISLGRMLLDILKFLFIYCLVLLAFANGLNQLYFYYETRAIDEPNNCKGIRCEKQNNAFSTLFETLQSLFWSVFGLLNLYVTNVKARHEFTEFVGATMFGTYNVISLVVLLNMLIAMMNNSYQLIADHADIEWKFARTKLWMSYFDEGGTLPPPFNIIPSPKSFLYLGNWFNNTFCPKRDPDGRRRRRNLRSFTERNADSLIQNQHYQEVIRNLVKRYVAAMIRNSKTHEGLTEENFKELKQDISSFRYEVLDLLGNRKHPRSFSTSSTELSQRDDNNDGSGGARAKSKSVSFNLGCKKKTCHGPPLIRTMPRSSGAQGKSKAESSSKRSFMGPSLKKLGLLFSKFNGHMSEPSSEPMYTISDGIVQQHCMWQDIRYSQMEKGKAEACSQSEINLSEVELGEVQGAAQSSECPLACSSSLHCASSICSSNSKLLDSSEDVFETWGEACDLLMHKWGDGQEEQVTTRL
# Assay: Whole-cell patch clamp, block of LaCl3-activated TRPC5 inward current
# Type: cell-based
# Conditions: TRPC5-expressing HEK293 TREx cells, 80 μM LaCl3, inward current, IC50 estimated from 5 μM and 500 nM, read-out: hTRPC5 Patch La3+ Inwd (nM) (All Batches)
# Protocol: In certain embodiments, exemplary compounds of Formula I and Formula II include the compounds described in Table 1 and in the Examples. A compound described herein may be tested for its ability to block both inward and outward currents through the TRPC5 channel, e.g., by an assay as described in Example 1. For example, IC50 of a compound of Formula I or Formula II was estimated by testing the compound at 5 μM and 500 nM. […] IC50 for a compound of Formula I or Formula II between 500 nM and 5 μM was similarly estimated. As shown, “A” refers to an IC50<100 nM. “B” refers to an IC50 between 100 nM and 500 nM. “C” refers to an IC50 between 500 nM and 1000 nM. “D” refers to an IC50 between 1 μM and 2 μM. “E” refers to an IC50 between 2 μM and 10 μM. “F” refers to […]. “ND” refers to compounds wherein the IC50 was not determined.
# Patch clamp experiments permit the detection of currents through the TRPC5 channel in the cell line described above. In normal whole-cell patch clamp recordings, a glass electrode is brought into contact with a single cell and a high-resistance (gigaohm) seal is established with the cell membrane. The membrane is then ruptured to achieve the whole-cell configuration, permitting control of the voltage of the cell membrane and measurement of currents flowing across the membrane using the amplifier attached to the electrode and resulting in the replacement of cytoplasm with the pipette solution. A perfusion system permits control of the extracellular solution, including the addition of blockers and activators of the current. The current can be activated by including 1.4 μM free Ca^2+ in the pipette (intracellular) solution, and 80 μM LaCl3 in the extracellular solution.
# TRPC5 cells were induced 20-48 hours, removed from growth plates, and replated at low density (to attain good single-cell physical separation) on glass coverslips for measurement. In some cases, cells were grown in low density overnight on glass coverslips. Patch clamp recordings were made in the whole-cell mode with a holding potential of −40 mV. Every 5 seconds, a voltage ramp was applied from −120 to +100 mV, 400 ms in duration. Currents elicited were quantified at −80 mV and +80 mV. The internal solution consisted of 140 mM cesium aspartate, 10 mM HEDTA, 2 mM CaCl2, 2.27 mM MgCl2 and 10 mM HEPES, pH 7.2, with 1,400 nM calculated free Ca^2+. The external solution consisted of 150 mM NaCl, 4.5 mM KCl, 1 mM MgCl2, 2 mM CaCl2, 10 mM HEPES, 10 mM glucose, 1 mM EGTA, pH 7.4. Upon addition of LaCl3, TRPC5 current was induced only in TRPC5-expressing cells and not in parental HEK293 TREx cells. Removal of the LaCl3 stimulus causes most of the current to go away. Potential blockers were tested for ability to block both inward and outward currents in the continued presence of LaCl3.
# IC50 of a compound of Formula I or Formula II was estimated by testing the compound at 5 μM and 500 nM. […] IC50 for a compound of Formula I or Formula II between 500 nM and 5 μM was similarly estimated.
row,Structure (SMILES),IC50
1,"CCC(=O)CSc1nc2c(c(=O)n(C)c(=O)n2C)n1Cc1cccc(Br)c1 [Compound 1, 7-(3-bromobenzyl)-1,3-dimethyl-8-(2-oxobutylthio)-1H-purine-2,6(3H,7H)-dione]",500 to 1000 nM
2,"Cn1c(=O)c2c(nc(SC(C)(C)C(=O)OC(C)(C)C)n2Cc2cccc(Br)c2)n(C)c1=O [Compound 3, Tert-butyl 2-(7-(3-bromobenzyl)-1,3-dimethyl-2,6-dioxo-2,3,6,7-tetrahydro-1H-purin-8-ylthio)-2-methylpropanoate]",100 to 500 nM
3,CC(O)CSc1nc2c(c(=O)n(C)c(=O)n2C)n1Cc1cccc(Br)c1 (stereo not shown) [Compound 5],2000 to 10000 nM
4,"CCOCCSc1nc2c(c(=O)n(C)c(=O)n2C)n1Cc1cccc(Br)c1 [Compound 6, 7-(3-bromobenzyl)-8-(2-ethoxyethylthio)-1,3-dimethyl-1H-purine-2,6(3H,7H)-dione]",100 to 500 nM
5,Cn1c(=O)c2c(nc(SCC#N)n2Cc2cccc(Br)c2)n(C)c1=O [Compound 7],2000 to 10000 nM
6,Cn1c(=O)c2c(nc(SCc3ncc[nH]3)n2Cc2cccc(Br)c2)n(C)c1=O [Compound 8],2000 to 10000 nM
7,"CCOC(=O)C(C)(C)Sc1nc2c(c(=O)n(C)c(=O)n2C)n1Cc1cccc(Br)c1 [Compound 9, Ethyl 2-(7-(3-bromobenzyl)-1,3-dimethyl-2,6-dioxo-2,3,6,7-tetrahydro-1H-purin-8-ylthio)-2-methylpropanoate]",< 100 nM
8,"Cn1c(=O)c2c(nc(SCc3cccnc3)n2Cc2cccc(Br)c2)n(C)c1=O [Compound 10, 7-(3-bromobenzyl)-1,3-dimethyl-8-(pyridin-3-ylmethylthio)-1H-purine-2,6(3H,7H)-dione]",2000 to 10000 nM
9,"Cn1c(=O)c2c(nc(SCc3ccncc3)n2Cc2cccc(Br)c2)n(C)c1=O [Compound 11, 7-(3-bromobenzyl)-1,3-dimethyl-8-(pyridin-4-ylmethylthio)-1H-purine-2,6(3H,7H)-dione]",2000 to 10000 nM
10,"Cn1c(=O)c2c(nc(SCc3ccccn3)n2Cc2cccc(Br)c2)n(C)c1=O [Compound 12, 7-(3-bromobenzyl)-1,3-dimethyl-8-(pyridin-2-ylmethylthio)-1H-purine-2,6(3H,7H)-dione]",500 to 1000 nM
11,"CCCC(=O)CSc1nc2c(c(=O)n(C)c(=O)n2C)n1Cc1cccc(Br)c1 [Compound 13, 7-(3-bromobenzyl)-1,3-dimethyl-8-(2-oxopentylthio)-1H-purine-2,6(3H,7H)-dione]",< 100 nM
12,"CCOCCS(=O)(=O)c1nc2c(c(=O)n(C)c(=O)n2C)n1Cc1cccc(Br)c1 [Compound 14, 7-(3-bromobenzyl)-8-(2-ethoxyethylsulfonyl)-1,3-dimethyl-1H-purine-2,6(3H,7H)-dione]",1000 to 2000 nM
13,CCOCC[S+]([O-])c1nc2c(c(=O)n(C)c(=O)n2C)n1Cc1cccc(Br)c1 (stereo not shown) [Compound 15],2000 to 10000 nM
14,CCOCCSc1nc2c(c(=O)n(C)c(=O)n2C)n1Cc1cccc(Cl)c1 [Compound 16],2000 to 10000 nM
15,"COCCOCCSc1nc2c(c(=O)n(C)c(=O)n2C)n1Cc1cccc(Br)c1 [Compound 17, 7-(3-bromobenzyl)-8-(2-(2-methoxyethoxy)ethylthio)-1,3-dimethyl-1H-purine-2,6(3H,7H)-dione]",100 to 500 nM
16,"CCOCCOc1nc2c(c(=O)n(C)c(=O)n2C)n1Cc1cccc(Br)c1 [Compound 18, 7-(3-bromobenzyl)-8-(2-ethoxyethoxy)-1,3-dimethyl-1H-purine-2,6(3H,7H)-dione]",1000 to 2000 nM
17,"COCCCSc1nc2c(c(=O)n(C)c(=O)n2C)n1Cc1cccc(Br)c1 [Compound 19, 7-(3-bromobenzyl)-8-(3-methoxypropylthio)-1,3-dimethyl-1H-purine-2,6(3H,7H)-dione]",100 to 500 nM
18,"CCc1coc(CSc2nc3c(c(=O)n(C)c(=O)n3C)n2Cc2cccc(Br)c2)n1 [Compound 20, 7-(3-bromobenzyl)-8-((4-ethyloxazol-2-yl)methylthio)-1,3-dimethyl-1H-purine-2,6(3H,7H)-dione]",100 to 500 nM
19,CCOCCNc1nc2c(c(=O)n(C)c(=O)n2C)n1Cc1cccc(Br)c1 [Compound 21],2000 to 10000 nM
